{"source": "patent US20100016423A1", "about": "“USE OF DRONEDARONE FOR THE TREATMENT OF PATIENTS WITH ARRHYTHMIA AND HAVING AN INCREASE OF CREATININE LEVEL DUE TO DRONEDARONE ADMINISTRATION” (SANOFI-AVENTIS, priority 2008, published 2010)", "key": {"[1]": {"conditions": "Br. J. Clin. Pharmac., 1993, 36, 125-127; cited from earlier work"}, "[2]": {"assay": "ANDROMEDA (EFC4966) clinical trial in patients with a recent severe episode of Congestive Heart failure", "assay_type": "in vivo", "conditions": "400 mg BID", "protocol": "Despite the equal distribution of treatment with ACE inhibitors/AII receptor antagonists at baseline, concomitant treatment with these drugs became unbalanced during the course of the ANDROMEDA study, as more patients in the dronedarone 400 mg BID group discontinued these treatments and fewer started them (table 2).\nIn the dronedarone 400 mg BID group, 14 of 41 patients who discontinued ACE/AII experienced “blood creatinine increased” or “renal impairment” adverse events, versus none among the 18 patients taking placebo in this category. This observation supports the hypothesis that an increase in serum creatinine observed in patients taking dronedarone may have led investigators to discontinue ACE/AII treatment (table 4)."}, "[3]": {"assay": "Clinical trials with dronedarone: serum creatinine levels", "assay_type": "in vivo", "protocol": "The instant invention therefore relates to a method of managing the risk of an increased morbidity and mortality rate in patients treated by an association of dronedarone or one of its pharmaceutically acceptable salts and of at least a compound B selected from ACE inhibitors, angiotensin II receptor antagonists and potassium sparing diuretics. Said method is performed by performing the following steps: • a) initially measuring serum creatinine levels, such as within one week after initiation of treatment with dronedarone, which provides a reference level, • b) monitoring serum creatinine levels at regular intervals during treatment of the patient by the compound B (as recommended in the labelling of compound B), • c) if the serum creatinine levels increases above the reference level, clinical judgement should be made to determine if the increase is due to dronedarone, to compound B or to another cause, • d) to help clinical judgment and evaluate if the increase is due to dronedarone, dronedarone can be temporarily interrupted.\nConcerning step a) of the methods of the invention, as mentioned before, in most patients with atrial fibrillation or atrial flutter the maximal increase in creatinine levels, compared to the level before administration of dronedarone, was smaller than 30%, with a mean increase ranging from 10 to 15% or more. Then during the treatment with dronedarone, mean creatinine levels remain stable, this corresponds to a plateau."}, "[4]": {"assay": "Specific study in healthy subjects: renal handling of creatinine", "assay_type": "in vivo"}}}
{"smiles": "CCCCc1oc2ccccc2c1C(=O)c1cc(I)c(OCCN(CC)CC)c(I)c1", "note": "[amiodarone]", "values": [{"measurement": "tubular secretion of creatinine", "setting": "[1]", "result": "decrease in the tubular secretion of creatinine"}]}
{"smiles": "CCCCc1oc2ccc(NS(C)(=O)=O)cc2c1C(=O)c1ccc(OCCCN(CCCC)CCCC)cc1", "note": "[dronedarone, 2-n-butyl-3-[4-(3-di-n-butylaminopropoxy)benzoyl]-5-methylsulfonamido-benzofuran]", "values": [{"measurement": "patients who died among those who never interrupted ACE inhibitors/AII receptor antagonists", "setting": "[2]", "result": 4, "unit": "%"}, {"measurement": "patients who discontinued ACE/AII and experienced blood creatinine increased or renal impairment adverse events", "setting": "[2]; of 41 patients who discontinued ACE/AII", "result": 14, "unit": "patients"}, {"measurement": "change in serum creatinine levels of the patient", "setting": "[3]; administration of dronedarone in clinical trials", "result": "slight increase"}, {"measurement": "return of creatinine levels to baseline after treatment discontinuation", "setting": "[3]; after treatment discontinuation", "result": "within three days"}, {"measurement": "time of occurrence of creatinine increase after treatment initiation", "setting": "[3]; after treatment initiation", "result": "within two days"}, {"measurement": "return of creatinine to baseline after temporary interruption of dronedarone", "setting": "[3]; demonstrated in another clinical trial", "result": "≤ 5", "unit": "days"}, {"measurement": "creatinine levels during treatment", "setting": "[3]; during treatment", "result": "remained stable"}, {"measurement": "maximal increase in creatinine levels compared to the level before administration", "setting": "[3]; most patients with atrial fibrillation or atrial flutter", "result": "smaller than 30%"}, {"measurement": "effect on creatinine secretion at the tubular level", "setting": "[4]", "result": "inhibition of creatinine secretion at the tubular level"}, {"measurement": "effect on glomerular filtration", "setting": "[4]", "result": "no effect"}, {"measurement": "effect on renal blood flow", "setting": "[4]", "result": "no effect"}]}
{"smiles": "CN/C(=N/CCSCc1nc[nH]c1C)NC#N", "note": "[cimetidine]", "values": [{"measurement": "tubular secretion of creatinine", "setting": "[1]", "result": "decrease in the tubular secretion of creatinine"}]}
{"smiles": "COc1cc(Cc2cnc(N)nc2N)cc(OC)c1OC", "note": "[trimethoprim]", "values": [{"measurement": "tubular secretion of creatinine", "setting": "[1]", "result": "decrease in the tubular secretion of creatinine"}]}
